# Test results as given in patent US20220133728A1, “METHODS FOR TREATING VITILIGO LESIONS HAVING IMPROVED EFFICACY” (ARCUTIS BIOTHERAPEUTICS, INC., priority 2020, published 2022).
# What was measured:
# [1] = target: JAK 1 (Homo sapiens, UniProt P23458); conditions: cited from earlier work
# [2] = test system: vitiligo lesions; test: Proof of Concept, double blind, vehicle-controlled study of ARQ-252 cream 0.3% BID with NB-UVB home phototherapy in non-segmental facial vitiligo; type: in vivo, human; conditions: applied topically in combination with narrowband UVB phototherapy, compared to vehicle cream plus narrowband UVB
# Source text: A Proof of Concept, parallel group, double blind, vehicle-controlled study of the safety and efficacy of a 0.3% SHR0302 topical cream of Example 1 (ARQ-252 cream 0.3%) was designed for subjects with non-segmental facial vitiligo. Subjects with non-segmental facial vitiligo applied either ARQ-252 0.3% cream BID or vehicle cream BID to all affected areas of vitiligo on the face, neck, hands, forearms, and elbows. Product was applied to all affected, depigmented areas and, where anatomically possible, treatment extended approximately 3 cm from the border all around. […]
# The two patients were assessed by measures including Facial Vitiligo Area and Severity Index (F-VASI), Facial Body Surface Area (F-BSA), Facial/Neck BSA (F/N-BSA), BSA (Hands, Forearms, Elbows), Facial/Neck VASI (F/N-VASI), VASI of the forearms and elbow (FOREARM-VASI) and VASI of the hands only (HAND-VASI). […] VASI is a quantitative clinical tool that is based on a composite estimate of the overall area of vitiligo patches at baseline and the degree of macular repigmentation within these patches over time. […] BSA affected with vitiligo will be assessed as a percentage of the total BSA, and will be determined to the nearest 0.01% using, as guides, the palm plus 5 digits, with fingers tucked together and thumb tucked to the side (handprint), as 1% BSA and the thumb as 0.1% BSA. […]
# Sequence of JAK 1 (P23458 whole entry, species assumed): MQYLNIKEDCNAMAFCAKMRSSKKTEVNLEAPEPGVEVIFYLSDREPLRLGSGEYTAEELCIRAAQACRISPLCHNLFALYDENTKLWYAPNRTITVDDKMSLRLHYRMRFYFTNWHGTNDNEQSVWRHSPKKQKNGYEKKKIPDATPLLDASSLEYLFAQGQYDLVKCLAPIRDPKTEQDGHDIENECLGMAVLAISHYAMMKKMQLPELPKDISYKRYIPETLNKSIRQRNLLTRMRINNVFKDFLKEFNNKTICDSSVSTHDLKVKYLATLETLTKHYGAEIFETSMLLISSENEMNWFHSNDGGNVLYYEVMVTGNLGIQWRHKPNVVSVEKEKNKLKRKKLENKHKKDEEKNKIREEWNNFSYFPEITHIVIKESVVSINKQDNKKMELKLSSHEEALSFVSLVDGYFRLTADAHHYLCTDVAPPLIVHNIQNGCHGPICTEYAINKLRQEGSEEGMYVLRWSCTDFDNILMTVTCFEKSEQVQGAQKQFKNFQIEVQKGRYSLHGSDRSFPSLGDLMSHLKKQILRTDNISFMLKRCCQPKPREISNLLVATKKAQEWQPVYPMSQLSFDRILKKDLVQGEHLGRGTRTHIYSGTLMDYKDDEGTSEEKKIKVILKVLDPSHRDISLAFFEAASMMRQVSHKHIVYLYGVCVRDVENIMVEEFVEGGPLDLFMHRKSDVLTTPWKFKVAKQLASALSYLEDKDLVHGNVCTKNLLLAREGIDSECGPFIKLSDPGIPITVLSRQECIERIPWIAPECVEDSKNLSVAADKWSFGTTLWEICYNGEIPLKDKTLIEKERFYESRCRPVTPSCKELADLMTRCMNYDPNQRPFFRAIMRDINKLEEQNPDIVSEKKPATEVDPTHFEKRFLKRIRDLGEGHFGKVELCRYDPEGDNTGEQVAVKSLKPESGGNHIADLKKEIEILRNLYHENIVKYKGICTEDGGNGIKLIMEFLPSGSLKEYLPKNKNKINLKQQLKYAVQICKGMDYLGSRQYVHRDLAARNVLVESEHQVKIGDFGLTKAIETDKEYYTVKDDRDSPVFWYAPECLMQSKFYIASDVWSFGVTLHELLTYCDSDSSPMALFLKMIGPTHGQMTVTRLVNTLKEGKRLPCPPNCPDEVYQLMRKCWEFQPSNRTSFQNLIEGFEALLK
structure (smiles),measurement,setting,value
"COc1nsc(NC(=O)N2C[C@H]3C[C@H](N(C)c4ncnc5[nH]ccc45)C[C@H]3C2)n1 [SHR0302, (3aR,5S,6aS)—N-(3-methoxyl-1,2,4-thiadiazol-5-yl)-5-(methyl(7H-pyrrolo[2,3-d]pyrimidin-4-yl)amino)hexahydrocyclopenta[c]pyrrole-2(1H)-carboxamide]",inhibition of JAK 1,[1],potent
same,selectivity for JAK1 over JAK2,[1],high selectively for JAK1 over JAK2
same,repigmentation of vitiligo lesions,[2],dramatically repigmented
